Test results as given in patent US8293891B2, “4 (pyrrolopyridinyl)pyrimidin-2-ylamine derivatives” (Merck Patent Gesellschaft mit Beschrankter Haftung, priority 2007, dated 2012).
pIC50: −log10 of the molar value.

Columns and labels:
Format in all cases: cell-based
[1] = tested on: A2780 (ovary); assay: Inhibition of the proliferation/vitality of tumour cells (Alamar Blue), A2780; details: Homo sapiens, 96 h, 4 days cultivation
Method: (§1) The cells are sown in a suitable cell density in microtitre plates (96-well format) and the test substances are added in the form of a concentration series. After four further days of cultivation in serum-containing medium, the tumour cell proliferation/tumour cell vitality can be determined by means of an Alamar Blue test system.
The cells are cultivated in medium. At intervals of several days, the cells are detached from the culture dishes with the aid of trypsin solution and sown in suitable dilution in fresh medium. The cells are cultivated at 37° Celsius and 10% CO2.
A defined number of cells (for example 2000 cells) per culture/well in a volume of 180 μl of culture medium are sown in microtitre plates (96 well cell-culture plates) using a multichannel pipette. The cells are subsequently cultivated in a CO2 incubator (37° C. and 10% CO2).
The test substances are dissolved, for example, in DMSO and subsequently employed in corresponding concentration (if desired in a dilution series) in the cell culture medium. The dilution steps can be adapted depending on the efficiency of the active ingredients and the desired spread of the concentrations. Cell culture medium is added to the test substances in corresponding concentrations. The addition of the test substances to the cells can take place on the same day as the sowing of the cells. To this end, in each case 20 μl of substance solution from the predilution plate are added to the cultures/wells. The cells are cultivated for a further 4 days at 37° Celsius and 10% CO2.
In each case, 20 μl of Alamar Blue reagent are added per well, and the microtitre plates are incubated, for example, for a further seven hours in a CO2 incubator (at 37° C. and 10% CO2). The plates are measured in a reader with a fluorescence filter at a wavelength of 540 nm. The plates can be shaken gently immediately before the measurement.
(§2) The absorbance value of the medium control (no cells and test substances used) is subtracted from all other absorbance values. The controls (cells without test substance) are set equal to 100 per cent, and all other absorbance values are set in relation thereto (for example in % of control):
(§3) IC50 values (50% inhibition) are determined with the aid of statistics programs, such as, for example, RS1.

[2] = tested on: Colo205 (intestine); assay: Inhibition of the proliferation/vitality of tumour cells (Alamar Blue), Colo205; details: Homo sapiens, COLO 205, 96 h, 4 days cultivation
Method: as §1
(§4) The cells are cultivated in medium. At intervals of several days, the cells are detached from the culture dishes with the aid of trypsin solution and sown in suitable dilution in fresh medium. The cells are cultivated at 37° Celsius and 10% CO2. […]
(§5) In each case, 20 μl of Alamar Blue reagent are added per well, and the microtitre plates are incubated, for example, for a further seven hours in a CO2 incubator (at 37° C. and 10% CO2). The plates are measured in a reader with a fluorescence filter at a wavelength of 540 nm. […]
as §2, §3

[3] = tested on: PC3 (prostate); assay: Inhibition of the proliferation/vitality of tumour cells (Alamar Blue), PC3; details: Prostate cell, 96 h, 4 days cultivation
Method: as §1, §4, §5, §2, §3

[4] = tested on: MCF7 (breast); assay: Inhibition of the proliferation/vitality of tumour cells (Alamar Blue), MCF7; details: Homo sapiens, 96 h, 4 days cultivation
Method: as §1, §4, §5, §2, §3

pIC50 [1]	pIC50 [2]	pIC50 [3]	pIC50 [4]	SMILES
5.00 to 6.00	–	–	–	Cc1ccccc1Nc1nccc(-c2c[nH]c3ccncc23)n1 [Compound A6, [4-(1H-pyrrolo-[3,2-c]pyridin-3-yl)pyrimidin-2-yl]-o-tolyl-amine]
6.00 to 8.00	6.00 to 8.00	6.00 to 8.00	6.00 to 8.00	c1ccc(Nc2nccc(-c3c[nH]c4ccncc34)n2)cc1 [Compound A1, phenyl[4-(1H-pyrrolo[3,2-c]pyridin-3-yl)pyrimidin-2-yl]-amine]
5.00 to 6.00	–	–	–	COc1ccc(Nc2nccc(-c3c[nH]c4ccncc34)n2)cc1 [Compound A8]
6.00 to 8.00	–	–	–	Fc1cccc(Nc2nccc(-c3c[nH]c4ccncc34)n2)c1 [Compound A7]
